{
  "source": "patent US5462958A",
  "about": "“Benzene derivatives and method of treating arteriosclerosis with benzene derivatives” (Eisai Co., Ltd., priority 1992, dated 1995)",
  "format_in_all_cases": "biochemical",
  "key": {"ACAT [1]": {"biological_target": "T1, ACAT (Oryctolagus cuniculus, UniProt A0A5F9CPP4)", "T1 construct": "supernatant of homogenate of the arterial wall of a rabbit; from tissue; host or cells: supernatant of homogenate of rabbit arterial wall", "T1 sequence (A0A5F9CPP4 1-555)": "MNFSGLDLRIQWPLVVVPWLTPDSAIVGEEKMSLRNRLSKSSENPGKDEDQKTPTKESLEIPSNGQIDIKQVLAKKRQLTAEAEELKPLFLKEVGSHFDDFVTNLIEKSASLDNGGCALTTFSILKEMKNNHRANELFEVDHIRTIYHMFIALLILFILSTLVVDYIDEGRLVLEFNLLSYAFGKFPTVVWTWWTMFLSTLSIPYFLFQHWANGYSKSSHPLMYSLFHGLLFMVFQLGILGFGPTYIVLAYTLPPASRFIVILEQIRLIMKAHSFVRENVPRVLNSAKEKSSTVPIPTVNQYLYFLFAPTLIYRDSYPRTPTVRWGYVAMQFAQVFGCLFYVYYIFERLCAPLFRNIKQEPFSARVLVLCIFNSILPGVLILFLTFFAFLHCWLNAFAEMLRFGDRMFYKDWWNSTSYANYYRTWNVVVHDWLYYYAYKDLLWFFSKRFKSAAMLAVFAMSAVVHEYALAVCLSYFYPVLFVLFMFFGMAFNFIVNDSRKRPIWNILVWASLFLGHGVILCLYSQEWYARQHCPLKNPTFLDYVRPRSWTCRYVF", "assay": "ACAT-inhibitory activity in vitro, supernatant of homogenate of the arterial wall of a rabbit (acylation of cholesterol with radiolabeled oleoyl-CoA)", "protocol": "(§1) Representative compounds according to the present invention were examined for ACAT-inhibitory activity according to the in-vitro test method described in Journal of Lipid Research, vol. 24, pp. 1049-1059 (1983) by F. J. Field and S. N. Mathur.\n(§2) The inhibitory activity of a test compound against the acylation, which was based on the inhibitory activity of the test compound against the enzyme which catalyzes the acylation of cholesterol with oleoyl-CoA, was evaluated by using one of the supernatant of homogenate of the arterial wall of a rabbit, the microsome of the small intestine of a rat and the supernatant of homogenate of the epithelial cell (CaCO2) resulting from human colon cancer as an enzyme source, determining the amount of a radioisotope-labeled cholesterol oleate made from a radiolabeled oleoyl-CoA and (free) cholesterol and comparing the result of the case when a test compound was added with the result of control (the case when no test compound was added).\n(§3) The data which are given in Table 1 are IC50 values, i.e., the concentrations of test compounds necessary for inhibiting 50% of the enzymatic activity of ACAT."}, "ACAT [2]": {"tested_on": "ACAT", "assay": "ACAT-inhibitory activity in vitro, supernatant of homogenate of the epithelial cell (CaCO2) resulting from human colon cancer (acylation of cholesterol with radiolabeled oleoyl-CoA)", "protocol": "as §1, §2, §3"}, "ACAT [3]": {"biological_target": "T2, ACAT (Rattus norvegicus, UniProt Q7TQM4)", "T2 construct": "the microsome of the small intestine of a rat; from tissue; host or cells: microsomes of rat small intestine", "T2 sequence (Q7TQM4 1-524)": "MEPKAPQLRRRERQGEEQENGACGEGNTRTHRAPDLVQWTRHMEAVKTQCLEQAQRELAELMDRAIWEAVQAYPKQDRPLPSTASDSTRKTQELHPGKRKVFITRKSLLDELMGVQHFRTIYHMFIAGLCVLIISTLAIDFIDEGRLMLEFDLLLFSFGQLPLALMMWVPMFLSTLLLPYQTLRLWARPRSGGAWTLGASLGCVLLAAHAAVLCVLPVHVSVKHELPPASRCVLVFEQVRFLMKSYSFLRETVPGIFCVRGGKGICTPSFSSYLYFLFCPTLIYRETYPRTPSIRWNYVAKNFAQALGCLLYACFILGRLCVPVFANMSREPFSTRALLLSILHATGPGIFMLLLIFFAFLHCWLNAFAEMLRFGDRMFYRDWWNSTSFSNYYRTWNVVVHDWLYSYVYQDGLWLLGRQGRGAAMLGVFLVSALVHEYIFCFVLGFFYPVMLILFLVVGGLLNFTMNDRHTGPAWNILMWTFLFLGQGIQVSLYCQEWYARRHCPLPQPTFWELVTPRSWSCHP", "assay": "ACAT-inhibitory activity in vitro, microsome of the small intestine of a rat (acylation of cholesterol with radiolabeled oleoyl-CoA)", "protocol": "as §1, §2, §3"}},
  "data": [
    {"smiles": "CCCCNC(=O)Nc1c(C)cccc1OCCCn1cnc(-c2ccc(O)cc2)c1CC", "note": "[Example 2, N-Butyl-N'-[2-[3-[5-ethyl-4-(4-hydroxyphenyl)-1H-imidazol-1-yl]propoxy]-6-methylphenyl]urea]", "values": [
      {"measurement": "IC50", "setting": "ACAT [1]", "result": 6900, "unit": "nM"},
      {"measurement": "IC50", "setting": "ACAT [2]", "result": 1000, "unit": "nM"}
    ]},
    {"smiles": "CCCCNC(=O)Nc1c(C)cc(O)cc1OCCCn1cnc(-c2ccccc2)c1CC", "note": "[Example 1, N-Butyl-N'-[2-[3-(5-ethyl-4-phenyl-1H-imidazol-1-yl)propoxy]-4-hydroxy-6-methylphenyl]urea]", "values": [
      {"measurement": "IC50", "setting": "ACAT [1]", "result": 580, "unit": "nM"}
    ]},
    {"smiles": "CCc1c(-c2ccccc2)ncn1CCCOc1cccc(C)c1NC(=O)NCCC(C)O", "note": "(centres unmarked) [Example 10, N-(3-Hydroxybutyl)-N'-[2-[3-(5-ethyl-4-phenyl-1H-imidazol-1-yl)propoxy]-6-methylphenyl]urea]", "values": [
      {"measurement": "IC50", "setting": "ACAT [3]", "result": 4200, "unit": "nM"},
      {"measurement": "IC50", "setting": "ACAT [1]", "result": 1000, "unit": "nM"},
      {"measurement": "IC50", "setting": "ACAT [2]", "result": 480, "unit": "nM"}
    ]},
    {"smiles": "CCCCNC(=O)Nc1c(CO)cccc1OCCCn1cnc(-c2ccccc2)c1CC", "note": "[Example 9, N-Butyl-N'-[2-[3-(5-ethyl-4-phenyl-1H-imidazol-1-yl)propoxy]-6-hydroxymethylphenyl]urea]", "values": [
      {"measurement": "IC50", "setting": "ACAT [3]", "result": 84, "unit": "nM"},
      {"measurement": "IC50", "setting": "ACAT [1]", "result": 700, "unit": "nM"},
      {"measurement": "IC50", "setting": "ACAT [2]", "result": 320, "unit": "nM"}
    ]},
    {"smiles": "CCc1c(-c2ccccc2)ncn1CCCOc1cccc(C)c1NC(N)=O", "note": "[Example 8, N-[2-[3-(5-Ethyl-4-phenyl-1H-imidazol-1-yl)propoxy]-6-methylphenyl]urea]", "values": [
      {"measurement": "IC50", "setting": "ACAT [2]", "result": 3500, "unit": "nM"}
    ]},
    {"smiles": "CCc1c(-c2ccccc2)ncn1CCCOc1cccc(C)c1NC(=O)NCCCCO", "note": "[Example 6, N-(4-Hydroxybutyl)-N'-[2-[3-(5-ethyl-4-phenyl-1H-imidazol-1-yl)propoxy]-6-methylphenyl]urea]", "values": [
      {"measurement": "IC50", "setting": "ACAT [1]", "result": 3800, "unit": "nM"}
    ]},
    {"smiles": "CCCCNC(=O)Nc1c(OCCCn2cnc(-c3ccccc3)c2CC)ccc(O)c1C", "note": "[Example 11, N-Butyl-N'-[2-[3-(5-ethyl-4-phenyl-1H-imidazol-1-yl)propoxy]-5-hydroxy-6-methylphenyl]urea]", "values": [
      {"measurement": "IC50", "setting": "ACAT [3]", "result": 68, "unit": "nM"},
      {"measurement": "IC50", "setting": "ACAT [1]", "result": 260, "unit": "nM"},
      {"measurement": "IC50", "setting": "ACAT [2]", "result": 100, "unit": "nM"}
    ]},
    {"smiles": "CCCCNC(=O)Nc1c(C)cccc1OCCCn1cnc(-c2ccccc2)c1C(C)O", "note": "(centres unmarked) [Example 5, N-Butyl-N'-[2-[3-[5-(1-hydroxyethyl)-4-phenyl-1H-imidazol-1-yl]propoxy]-6-methylphenyl]urea]", "values": [
      {"measurement": "IC50", "setting": "ACAT [3]", "result": 150, "unit": "nM"},
      {"measurement": "IC50", "setting": "ACAT [1]", "result": 850, "unit": "nM"},
      {"measurement": "IC50", "setting": "ACAT [2]", "result": 170, "unit": "nM"}
    ]}
  ]
}
